Measured values published in ChEMBL document CHEMBL4602687, “Dual Binding to Orthosteric and Allosteric Sites Enhances the Anticancer Activity of a TRAP1-Targeting Drug” (J Med Chem, 2020).
Substitutions are numbered along the chain they refer to. The source made the active and inactive calls. The calls are words filed in the database; no cut-off is given here.

How the values were obtained:
[1] = test system: HeLa; test: Cytotoxicity against human HeLa cells assessed as reduction in cell viability up to 3 uM measured after 24 hrs by MTT assay; type: functional, cell-based
[2] = test system: NCI-H460; test: Antitumor activity against human NCI-H460 cells xenografted in nude mouse assessed as reduction in tumor cell proliferation at 5 mg/kg, ip administered daily by Ki67 staining based immunohistochemistry analysis; type: functional, organism-based
[3] = species: Homo sapiens; test: Inhibition of recombinant full-length human TRAP1 W585/W4F mutant expressed in Escherichia coli BL21 (DE3) assessed as intrinsic fluorescence quenching of tryptophan residues at 10 uM measured after 1 hr by fluorescence spectrophotometric method
[4] = molecular target: T1, Heat shock protein 75 kDa, mitochondrial (Homo sapiens) (UniProt Q12931); test: Binding affinity to recombinant wild-type human TRAP1 ATP site expressed in Escherichia coli BL21 (DE3) assessed as induction of conformational change by measuring closed state population of TRAP1 at 10 uM preincubated for 30 mins followed by ATP addition and measured after 30 mins by TEM analysis (reference value: 52.1 +/- 0.6 %)
T1 sequence (whole entry): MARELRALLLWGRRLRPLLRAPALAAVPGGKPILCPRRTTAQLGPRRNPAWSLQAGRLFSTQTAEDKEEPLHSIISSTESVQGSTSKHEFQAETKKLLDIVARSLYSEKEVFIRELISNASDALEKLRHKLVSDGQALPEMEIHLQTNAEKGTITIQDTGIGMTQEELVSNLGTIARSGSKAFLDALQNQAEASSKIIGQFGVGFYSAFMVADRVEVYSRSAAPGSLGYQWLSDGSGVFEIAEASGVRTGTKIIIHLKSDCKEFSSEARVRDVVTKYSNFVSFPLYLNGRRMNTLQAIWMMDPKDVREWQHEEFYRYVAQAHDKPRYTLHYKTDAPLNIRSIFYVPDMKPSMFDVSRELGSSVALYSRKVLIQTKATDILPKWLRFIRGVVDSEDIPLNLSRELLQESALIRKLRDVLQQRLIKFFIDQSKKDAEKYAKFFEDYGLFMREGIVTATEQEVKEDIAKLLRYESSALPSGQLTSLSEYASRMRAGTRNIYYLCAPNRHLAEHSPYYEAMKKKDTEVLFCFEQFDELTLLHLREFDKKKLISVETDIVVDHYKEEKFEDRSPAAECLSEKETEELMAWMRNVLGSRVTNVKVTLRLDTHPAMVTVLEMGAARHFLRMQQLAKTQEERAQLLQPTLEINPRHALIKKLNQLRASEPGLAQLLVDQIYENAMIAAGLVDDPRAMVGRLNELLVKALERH

[5] = molecular target: T1, Heat shock protein 75 kDa, mitochondrial (Homo sapiens); test: Inhibition of recombinant wild-type human TRAP1 expressed in Escherichia coli BL21 (DE3) assessed as intrinsic fluorescence quenching of tryptophan residues at 10 uM measured after 1 hr by fluorescence spectrophotometric method
[6] = test system: LN-229; test: Cytotoxicity against human LN229 cells assessed as reduction in cell viability up to 3 uM measured after 24 hrs by MTT assay; type: functional, cell-based
[7] = test system: T2, Heat shock protein 75 kDa, mitochondrial (Homo sapiens), Q12931 [E115K,R114E,E403K]; test: Stimulation of recombinant […] human TRAP1 E115K/R114E/E403K mutant ATPase activity expressed in Escherichia coli BL21 (DE3) up to 20 uM preincubated for 0.5 hrs followed by ATP addition and measured after 3 hrs by PiColorLock Gold reagent based colorimetric assay
T2 sequence (whole entry): T1 sequence (whole entry) with R114E, E115K, E403K

[8] = molecular target: T1, Heat shock protein 75 kDa, mitochondrial (Homo sapiens); test: Inhibition of TRAP1 in human PC3 cells assessed as increase in CHOP expression at 5 uM measured after 2 to 12 hrs by Western blot analysis; type: cell-based; details: PC-3
[9] = test system: NCI-H460; test: Cytotoxicity against human NCI-H460 cells assessed as reduction in cell viability up to 3 uM measured after 24 hrs by MTT assay; type: functional, cell-based
[10] = test system: Mus musculus; test: In vivo inhibition of TRAP1 in nude mouse xenografted with human NCI-H460 cells assessed as increase in CHOP expression at 5 mg/kg, ip administered daily by Western blot analysis; type: functional, organism-based
[11] = test system: NCI-H460; test: Antitumor activity against human NCI-H460 cells xenografted in nude mouse assessed as tumor growth inhibition at 5 mg/kg, ip administered daily; type: functional, organism-based
[12] = test system: NCI-H460; test: Antitumor activity against human NCI-H460 cells xenografted in nude mouse assessed as induction of tumor cell death by measuring increase in cleaved caspase-9 expression at 5 mg/kg, ip administered daily by Western blot analysis; type: functional, organism-based
[13] = test system: Mus musculus; test: In vivo inhibition of TRAP1 in nude mouse xenografted with human NCI-H460 cells assessed as increase in SDHB degradation at 5 mg/kg, ip administered daily by Western blot analysis; type: functional, organism-based
[14] = species: Homo sapiens; test: Inhibition of recombinant full-length human TRAP1 W383/W4F mutant expressed in Escherichia coli BL21 (DE3) assessed as intrinsic fluorescence quenching of tryptophan residues at 10 uM measured after 1 hr by fluorescence spectrophotometric method

Nc1ncnc2c1nc(Sc1cc3c(cc1I)OCO3)n2CCCCCCCCCC[P+](c1ccccc1)(c1ccccc1)c1ccccc1
Activity [1]: Active | Activity [2]: Active | inhibition [3]: Active | Activity [4]: 94.2% | inhibition [5]: Active | Activity [6]: Active | Activity [7]: inactive | inhibition [8]: Active | Activity [9]: Active | inhibition [10]: Active | TGI [11]: Active | Activity [12]: Active | inhibition [13]: Active | inhibition [14]: Active
